Results published in CN105267200A, “一种黄酮类化合物的应用” (Shanghai Institute of Organic Chemistry of CAS, priority 2014, dated 2016).
pIC50: −log10 of the molar value.

Molecular target: T1, mTORC1 (Homo sapiens, UniProt P42345)
T1 construct: purchased sigma试剂有限公司 (Sigma) SRP0364
Experiment: mTORC1 enzyme activity inhibition (phosphorylation of 5-FAM substrate peptide STTPGGTLFSTTPG), capillary electrophoresis with laser-induced fluorescence
Type: biochemical
Settings: mTORC1 31.1 nM, substrate peptide 2 μM, 20 min; for inhibition at 1.25 µM: compound 1.25 μM, read-out: inhibition of the catalytic activity of mTORC1

T1 sequence (P42345 1362-2549 limits assumed): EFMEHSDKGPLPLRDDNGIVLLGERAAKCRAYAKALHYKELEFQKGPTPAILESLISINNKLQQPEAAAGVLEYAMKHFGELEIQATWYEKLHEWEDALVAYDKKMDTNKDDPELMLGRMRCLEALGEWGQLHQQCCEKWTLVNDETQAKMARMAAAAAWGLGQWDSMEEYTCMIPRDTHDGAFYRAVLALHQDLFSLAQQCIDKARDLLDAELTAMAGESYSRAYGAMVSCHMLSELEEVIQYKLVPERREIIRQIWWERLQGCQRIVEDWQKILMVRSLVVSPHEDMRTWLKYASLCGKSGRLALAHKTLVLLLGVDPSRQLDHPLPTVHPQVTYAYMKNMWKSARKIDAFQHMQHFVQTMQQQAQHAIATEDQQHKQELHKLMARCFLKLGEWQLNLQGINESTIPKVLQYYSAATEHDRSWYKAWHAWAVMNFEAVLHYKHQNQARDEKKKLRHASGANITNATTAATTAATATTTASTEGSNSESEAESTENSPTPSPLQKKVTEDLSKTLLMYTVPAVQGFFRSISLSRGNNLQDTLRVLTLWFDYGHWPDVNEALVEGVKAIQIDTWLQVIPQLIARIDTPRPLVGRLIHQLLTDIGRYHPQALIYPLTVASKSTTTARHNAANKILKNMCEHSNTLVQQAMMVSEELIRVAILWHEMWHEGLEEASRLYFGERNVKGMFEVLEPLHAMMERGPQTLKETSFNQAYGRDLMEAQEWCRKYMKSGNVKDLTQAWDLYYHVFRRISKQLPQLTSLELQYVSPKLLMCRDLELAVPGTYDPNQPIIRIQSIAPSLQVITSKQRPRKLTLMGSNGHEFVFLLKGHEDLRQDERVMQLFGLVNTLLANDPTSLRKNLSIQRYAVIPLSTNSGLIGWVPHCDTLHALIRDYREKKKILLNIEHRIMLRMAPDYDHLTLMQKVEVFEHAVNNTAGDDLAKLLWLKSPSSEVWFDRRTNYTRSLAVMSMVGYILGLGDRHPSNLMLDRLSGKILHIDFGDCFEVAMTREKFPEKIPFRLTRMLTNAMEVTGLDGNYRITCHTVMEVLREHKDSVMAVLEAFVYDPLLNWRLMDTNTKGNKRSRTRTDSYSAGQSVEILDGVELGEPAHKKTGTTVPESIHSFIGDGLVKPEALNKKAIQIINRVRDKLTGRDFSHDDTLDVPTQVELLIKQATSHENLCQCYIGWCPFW

SMILES | pIC50 (nonlinear fit Origin 8.0) | inhibition percentage (quercetin 0.05 nmol/L) [%] | inhibition percentage (quercetin 0.5 nmol/L) [%] | inhibition percentage (quercetin 5 nmol/L) [%] | inhibition percentage (quercetin 50 nmol/L) [%] | inhibition percentage (quercetin 250 nmol/L) [%] | inhibition of mTORC1 phosphorylation of the substrate peptide (in words, electropherogram Fig. 1C) (quercetin 0.5 μM, 25℃) | inhibition percentage (quercetin 500 nmol/L) [%] | inhibition percentage (quercetin 5×10^3 nmol/L) [%] | inhibition percentage (quercetin 5×10^4 nmol/L) [%] | inhibition percentage (quercetin 5×10^5 nmol/L) [%] | inhibition at 1.25 µM [%]
O=c1c(O)c(-c2ccc(O)c(O)c2)oc2cc(O)cc(O)c12 [槲皮素] | 6.42 | 0 | 0 | 0 | 8 | 47 | 可以有效抑制 | 53 | 97 | 100 | 100 | –
O=c1c(O[C@@H]2O[C@H](CO)[C@H](O)[C@H](O)[C@H]2O)c(-c2ccc(O)c(O)c2)oc2cc(O)cc(O)c12 [金丝桃苷, reference compound] | – | – | – | – | – | – | – | – | – | – | – | 25
O=c1cc(-c2ccccc2)oc2cc(O)c(O)c(O)c12 [黄芩素, reference compound] | – | – | – | – | – | – | – | – | – | – | – | 25
